Entries after “also recorded” stand apart in the source; their conditions may differ. Bridges are numbered along the chain shown (N, C = ends). Where no end group is shown, it is not given here.
Key:
[1] = test system: Pdx1-expressing α-cells; experiment: Insulin production in Pdx1-expressing α-cells of adult mice with normal β-cell mass after in vivo inhibition of insulin signaling; details: in vivo administration to mice expressing Pdx1 in α-cells; FIG. 7B
Method: (§1) DT (Sigma) was administrated by intra-peritoneal (i.p.) injections as previously described (Thorel et al., 2010, supra). DOX (1 mg/ml; Sigma) was added to the drinking water. S961 (Novo-Nordisk) (Vikram and Jena, 2010, Biochem Biophys Res Commun. 398(2):260-5) was injected intravenously (i.v.) twice a day at 200-nmol/kg-body weight, for 4 consecutive days. PPP (Santa-Cruz) and Wortmannin (Sigma) were injected i.p. once a day for 5 consecutive days at 10-mg/kg-body weight and 1-mg/kg-body weight, respectively. Mice received subcutaneous insulin pellets (Linbit) one week apart, if glycaemia exceeded 25 mM.
Pancreatic glucagon and insulin dosages (immunoassays), gene expression analyses by real time PCR as well as histological and morphometric analyses were performed as described (Herrera et al, 1991, Development. 113(4):1257-65; Strom et al, 2007, Development. 134(15):2719-25).
Cryostat sections were 10 μm-thick. The antibodies used were: rabbit and guinea pig anti-Pdx1 (kind gift of C. Wright, 1/5000 and 1/750 respectively), guinea pig anti-porcine insulin (DAKO, 1/400), mouse anti-porcine glucagon (1/1000), mouse anti-somatostatin (BCBC Ab1985, 1/200), rabbit anti-GFP (Molecular Probes, 1/400), rabbit anti-Cpeptide1 (BCBC Ab1044, 1/500), rabbit anti-Cpeptide2 (BCBC Ab1042, 1/500). […]

[2] = Peripheral action of S961 administered in vivo (glycemia); parameters: species or system mice; details: data not shown
Method: as §1
To test whether insulin deprivation in absence of β-cell loss can prime α-cells to insulin production, adult mice in which α-cells express Pdx1 (cPdx1OE) were treated with an insulin receptor antagonist, termed S961 (Novo Nordisk), to blunt insulin signaling in peripheral tissues as well as in pancreatic islets (FIG. 7A).
A 5-day treatment to healthy adult mice having a normal β-cell mass led to insulin production in some 18% of Pdx1-expressing α-cells (FIG. 7B). […] Next, the insulin receptor was conditionally inactivated in adult α-cells to assess whether local inhibition of insulin signaling, exclusively at the level of α-cells, is sufficient to prime those cells to insulin production. […]

[3] = molecular target: T1, insulin receptor (Rattus norvegicus, UniProt P15127); details: Vikram and Jena, 2010; cited from earlier work
T1 construct: host or cells: rats, in vivo (endogenous receptor)
T1 sequence (P15127 27-759 limits assumed): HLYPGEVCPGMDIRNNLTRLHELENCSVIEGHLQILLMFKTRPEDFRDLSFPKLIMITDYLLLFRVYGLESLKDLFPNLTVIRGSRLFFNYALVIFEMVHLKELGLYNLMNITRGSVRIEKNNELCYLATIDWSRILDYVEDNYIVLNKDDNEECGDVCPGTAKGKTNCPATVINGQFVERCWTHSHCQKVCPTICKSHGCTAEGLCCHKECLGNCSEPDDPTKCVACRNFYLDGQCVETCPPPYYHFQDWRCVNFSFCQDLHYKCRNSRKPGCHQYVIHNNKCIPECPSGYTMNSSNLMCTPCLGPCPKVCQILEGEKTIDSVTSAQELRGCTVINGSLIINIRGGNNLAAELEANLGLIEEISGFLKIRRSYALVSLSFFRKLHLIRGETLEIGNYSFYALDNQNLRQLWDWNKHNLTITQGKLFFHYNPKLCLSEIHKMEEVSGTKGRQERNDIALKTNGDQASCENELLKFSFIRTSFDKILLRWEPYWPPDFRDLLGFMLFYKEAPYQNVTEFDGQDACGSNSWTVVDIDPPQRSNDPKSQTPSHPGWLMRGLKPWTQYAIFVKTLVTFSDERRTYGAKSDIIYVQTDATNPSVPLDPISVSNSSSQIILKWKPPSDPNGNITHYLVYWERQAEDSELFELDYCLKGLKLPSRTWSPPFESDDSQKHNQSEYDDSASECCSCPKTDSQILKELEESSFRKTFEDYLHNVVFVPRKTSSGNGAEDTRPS
T1 sequence (P15127 764-1383 partner limits assumed): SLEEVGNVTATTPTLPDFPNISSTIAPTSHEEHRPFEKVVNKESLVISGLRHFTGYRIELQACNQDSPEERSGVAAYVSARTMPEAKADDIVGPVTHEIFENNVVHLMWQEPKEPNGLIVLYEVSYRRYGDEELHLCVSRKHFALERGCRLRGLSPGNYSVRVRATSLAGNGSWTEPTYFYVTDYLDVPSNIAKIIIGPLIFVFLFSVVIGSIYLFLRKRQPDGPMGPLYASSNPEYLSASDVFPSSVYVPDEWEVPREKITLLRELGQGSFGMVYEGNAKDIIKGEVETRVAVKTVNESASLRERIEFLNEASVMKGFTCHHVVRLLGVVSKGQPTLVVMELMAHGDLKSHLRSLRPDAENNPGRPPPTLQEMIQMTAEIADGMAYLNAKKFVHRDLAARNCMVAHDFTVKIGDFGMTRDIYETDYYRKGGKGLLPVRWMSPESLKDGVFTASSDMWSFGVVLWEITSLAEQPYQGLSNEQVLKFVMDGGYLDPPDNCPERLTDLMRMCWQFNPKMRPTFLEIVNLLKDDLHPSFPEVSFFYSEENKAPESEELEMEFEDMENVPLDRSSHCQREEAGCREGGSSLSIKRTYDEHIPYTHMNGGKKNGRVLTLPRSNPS

Molecule | insulin production triggered in Pdx1-expressing α-cells (in words) [1] | effect on glycemia when administered in vivo [2] | effects of S961 in rats [3]
COC[C@H]1OC(=O)c2coc3c2[C@@]1(C)C1=C(C3=O)[C@@H]2CCC(=O)[C@@]2(C)C[C@H]1OC(C)=O [wortmannin] | triggers insulin production with similar efficiency; also recorded: produce insulin |  | 
GSLDESFYDWFERQLGGGSGGSSLEEEWAQIQCEVWGRGCPSY (disulfide 33-40) [S961] |  | induces hyperglycemia | hyperglycemia, hyperinsulinemia, insulin-resistance and depletion of energy stores

— US20160067212A1, “USE OF INSULIN SIGNALING ANTAGONISTS, OPTIONALLY IN COMBINATION OF TRANSFECTION OF NON-BETA CELLS, FOR INDUCING INSULIN PRODUCTION” (UNIVERSITE DE GENEVE, priority 2013, published 2016)
